Test results as given in patent US20220257774A1, “AROMATIC AMINE AR AHD BET TARGETING PROTEIN DEGRADATION CHIMERA COMPOUND AND USE” (HINOVA PHARMACEUTICALS INC., priority 2019, published 2022).
Like-named read-outs stand apart in the source and are kept apart here.

Assays:
22RV1 cells = assay: Inhibition of the proliferation of drug-resistant prostate cancer cell 22RV1 (CCK-8); format: cell-based; conditions: 22RV1 cells (enzalutamide-resistant), same method
In short: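 22RV1 cells, 1000/well in RPMI1640 with 10% FBS, treated in duplicate with 9-point 3-fold dilutions from 10 μM (0.1% DMSO final). After 6 days at 37 °C, CCK-8 added for 1 h and OD450 read. IC50 from dose-response inhibition fit.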

LNCaP/AR cells = assay: Inhibition of the proliferation of LNCap/AR cells (CCK-8); format: cell-based; conditions: read-out: LNCap/AR IC50
In short: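 LNCaP/AR cells (1000/well, RPMI1640 + 10% FBS) were treated for 6 days at 37 °C with 9-point 3-fold dilutions from 10 μM final, 0.1% DMSO, in duplicate. Viability was read by CCK-8 absorbance at 450 nm after 1 h, and IC50 came from a dose-response-inhibition fit.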

[1] = 144 h, LNCaP/AR cells, 6 days culture, CCK-8
[2] = LNCaP/AR cells, 6 days culture, CCK-8

| SMILES | IC50 (22RV1 cells; Homo sapiens) | IC50 (LNCaP/AR cells; LNCaP/AR, 144 h) | IC50 (LNCaP/AR cells; [1]) | IC50 (22RV1 cells) | IC50 (LNCaP/AR cells; [2]) |
| --- | --- | --- | --- | --- | --- |
| Cc1ccc(-c2c(C)noc2C)cc1N(CC1CCC(CNc2ccc3c(c2)C(=O)N(C2CCC(=O)NC2=O)C3)CC1)c1ccc(C#N)c(Cl)c1 (centres unmarked) [Compound 134, 2-Chloro-4-((5-(3,5-dimethylisoxazol-4-yl)-2-methylphenyl)((1r,4r)-4-((2-(2,6-dioxopiperidin-3-yl)-3-oxoisoindolin-5-yl)amino)methyl)cyclohexyl)methyl)amino)benzonitrile] | < 0.1 µM | 0.101 to 0.5 µM | – | – | – |
| Cc1ccc(-c2c(C)noc2C)cc1N(C[C@H]1C[C@@H]1CNc1ccc2c(c1)CN(C1CCC(=O)NC1=O)C2=O)c1ccc(C2(C#N)CC2)cc1 (some centres unmarked) [Compound 187] | 0.501 to 2 µM | – | > 2 µM | – | – |
| Cc1ccc(-c2c(C)noc2C)cc1N(CCCCCCNc1ccc2c(c1)CN(C1CCC(=O)NC1=O)C2=O)c1ccc(C2(C#N)CC2)cc1 (centres unmarked) [Compound 61, 1-(4-((5-(3,5-dimethylisoxazol-4-yl)-2-methylphenyl)(6-((2-(2,6-dioxopiperidin-3-yl)-1-oxoisoindolin-5-yl)amino)hexyl)amino)phenyl)cyclopropane-1-nitrile] | < 0.1 µM | – | < 0.1 µM | – | – |
| Cc1ccc(-c2c(C)noc2C)cc1N(c1ccc(C2(C#N)CC2)cc1)C1CN(C2CCC(Nc3cc4c(cc3F)C(=O)N(C3CCC(=O)NC3=O)C4=O)CC2)C1 (centres unmarked) [Compound 73, 1-(4-((5-(3,5-dimethylisoxazol-4-yl)-2-methylphenyl)(1-((1s,4s)-4-((2-(2,6-dioxopiperidin-3-yl)-6-fluoro-1,3-dioxoisoindolin-5-yl)amino)cyclohexyl)azetidin-3-yl)amino)phenyl)cyclopropane-1-nitrile] | – | – | – | > 2 µM | > 2 µM |
| Cc1ccc(-c2c(C)noc2C)cc1N(CC1CN(C2CCN(c3ccc4c(c3)CN(C3CCC(=O)NC3=O)C4=O)CC2)C1)c1ccc(C2(C#N)CC2)cc1 (centres unmarked) [Compound 76, 1-(4-((5-(3,5-dimethylisoxazol-4-yl)-2-methylphenyl)((1-(1-(2-(2,6-dioxopiperidin-3-yl)-1-oxoisoindolin-5-yl)piperidinyl-4-yl)azetidin-3-yl)methyl)amino)phenyl)cyclopropane-1-carbonitrile] | > 2 µM | – | > 2 µM | – | – |
| Cc1ccc(-c2c(C)noc2C)cc1N(CC1CCN(c2cc3c(cc2F)C(=O)N(C2CCC(=O)NC2=O)C3=O)C1)c1ccc(C2(C#N)CC2)cc1 (centres unmarked) [Compound 107] | > 2 µM | – | > 2 µM | – | – |
| Cc1ccc(-c2c(C)n[nH]c2C)cc1N(CCCCCOCC(=O)N[C@H](C(=O)N1C[C@H](O)C[C@H]1C(=O)N[C@@H](C)c1ccc(-c2scnc2C)cc1)C(C)(C)C)c1ccc(C#N)c(Cl)c1 [Compound 79, (2S,4R)-1-((S)-2-(2-((5-((3-chloro-4-cyanophenyl)(5-(3,5-dimethyl-1H-pyrazol-4-yl)-2-methylphenyl)amino)pentyl)oxy)acetylamino)-3,3-dimethylbutyryl)-4-hydroxy-N—((S)-1-(4-(4-methylthiazol-5-yl)phenyl)ethyl)pyrrolidinyl-2-formamide] | – | – | – | > 2 µM | 0.101 to 0.5 µM |
| Cc1ccc(-c2c(C)noc2C)cc1N(CC1CN(C2CCN(c3cc4c(cc3F)C(=O)N(C3CCC(=O)NC3=O)C4=O)CC2)C1)c1ccc(C2(C#N)CC2)cc1 (centres unmarked) [Compound 139, 1-(4-((5-(3,5-dimethylisoxazol-4-yl)-2-methylphenyl)((1-(1-(2-(2,6-dioxopiperidin-3-yl)-6-fluoro-1,3-dioxoisoindolin-5-yl)piperidin-4-yl)azetidin-3-yl)methyl)amino)phenyl)cyclopropane-1-carbonitrile] | > 2 µM | – | > 2 µM | – | – |
| Cc1ccc(-c2c(C)noc2C)cc1N(CC1CCN(C2CN(c3ccc4c(c3)C(=O)N(C3CCC(=O)NC3=O)C4=O)C2)CC1)c1ccc(C2(C#N)CC2)cc1 (centres unmarked) [Compound 109, 1-(4-((5-(3,5-Dimethylisoxazol-4-yl)-2-methylphenyl)((1-(1-(2-(2,6-dioxopiperidin-3-yl)-1,3-dioxoisoindolin-5-yl)azetidin-3-yl)piperidin-4-yl)methyl)amino)phenyl)cyclopropanecarbonitrile] | < 0.1 µM | – | < 0.1 µM | – | – |
| Cc1ccc(-c2c(C)noc2C)cc1N(CC1CN(C2CCN(c3ccc4c(c3)C(=O)N(C3CCC(=O)NC3=O)C4)CC2)C1)c1ccc(C2(C#N)CC2)cc1 (centres unmarked) [Compound 75, 1-(4-((5-(3,5-dimethylisoxazol-4-yl)-2-methylphenyl)((1-(1-(2-(2,6-dioxopiperidin-3-yl)-3-oxoisoindolin-5-yl)piperidin-4-yl)azetidin-3-yl)methyl)amino)phenyl)cyclopropane-1-carbonitrile] | > 2 µM | – | > 2 µM | – | – |
| Cc1ccc(-c2c(C)noc2C)cc1N(CC1CN(C2CN(c3cc4c(cc3F)C(=O)N(C3CCC(=O)NC3=O)C4)C2)C1)c1ccc(C2(C#N)CC2)cc1 (centres unmarked) [Compound 158] | – | – | – | < 0.1 µM | < 0.1 µM |
| Cc1ccc(-c2c(C)noc2C)cc1N(CC1CN(C2CCN(c3ccc4c(c3)C(=O)N(C3CCC(=O)NC3=O)C4=O)CC2)C1)c1ccc(C2(C#N)CC2)cc1 (centres unmarked) [Compound 152] | 0.501 to 2 µM | > 2 µM | – | – | – |
| Cc1ccc(-c2c(C)noc2C)cc1N(CCOC1(C)CN(c2cc3c(cc2F)CN(C2CCC(=O)NC2=O)C3=O)C1)c1ccc(C2(C#N)CC2)cc1 (centres unmarked) [Compound 112, 1-(4-((5-(3,5-Dimethylisoxazol-4-yl)-2-methylphenyl)(2-((1-(2-(2,6-dioxopiperidin-3-yl)-6-fluoro-3-oxoisoindolin-5-yl)-3-methylazetidin-3-yl)oxy)ethyl)amino)phenyl)cyclopropanecarbonitrile] | > 2 µM | – | > 2 µM | – | – |
| Cc1ccc(-c2c(C)noc2C)cc1N(c1ccc(C2(C#N)CC2)cc1)C1CC2(C1)CN(c1cc3c(cc1F)C(=O)N(C1CCC(=O)NC1=O)C3=O)C2 (centres unmarked) [Compound 170] | > 2 µM | – | > 2 µM | – | – |
| Cc1ccc(-c2c(C)n[nH]c2C)cc1N(CCCCCOCC(=O)N[C@H](C(=O)N1C[C@H](O)C[C@H]1C(=O)N[C@@H](C)c1ccc(-c2scnc2C)cc1)C(C)(C)C)c1ccc(C#N)c(Cl)c1 [Compound 44, (2S,4R)-1-((S)-2-(2-((5-((3-chloro-4-cyanophenyl)(5-(3,5-dimethyl-1H-pyrazol-4-yl)-2-methylphenyl)amino)pentyl)oxy)acetylamino)-3,3-dimethylbutyryl)-4-hydroxy-N—((S)-1-(4-(4-methylthiazol-5-yl)phenyl)ethyl)pyrrolidinyl-2-formamide] | > 2 µM | 0.101 to 0.5 µM | – | – | – |
| Cc1ccc(-c2c(C)noc2C)cc1N(CC1CN(C2CN(c3cc4c(cc3F)C(=O)N(C3CCC(=O)NC3=O)C4=O)C2)C1)c1ccc(C2(C#N)CC2)cc1 (centres unmarked) [Compound 153] | – | – | – | < 0.1 µM | < 0.1 µM |
| CC(=O)O[C@@H]1C[C@@H](C(=O)N[C@@H](C)c2ccc(-c3scnc3C)cc2)N(C(=O)[C@@H](NC(=O)COCCCCCN(c2ccc(C#N)c(Cl)c2)c2cc(-c3c(C)n[nH]c3C)ccc2C)C(C)(C)C)C1 [Compound 80] | – | – | – | > 2 µM | 0.501 to 2 µM |
| Cc1ccc(-c2c(C)noc2C)cc1N(C[C@H]1C[C@@H]1CNc1cc2c(cc1F)C(=O)N(C1CCC(=O)NC1=O)C2)c1ccc(C2(C#N)CC2)cc1 (some centres unmarked) [Compound 185] | > 2 µM | – | > 2 µM | – | – |
| Cc1ccc(-c2c(C)noc2C)cc1N(CCC(C)CCNc1cc2c(cc1F)CN(C1CCC(=O)NC1=O)C2=O)c1ccc(C2(C#N)CC2)cc1 (centres unmarked) [Compound 190, 1-(4-((5-(3,5-dimethylisoxazol-4-yl)-2-methylphenyl)(5-((2-(2,6-dioxopiperidin-3-yl)-6-fluoro-3-oxoisoindolin-5-yl)amino)-3-methylpentanyl)amino)phenyl)cyclopropane-1-carbonitrile] | > 2 µM | – | > 2 µM | – | – |
| Cc1ccc(-c2c(C)noc2C)cc1N(C[C@H]1C[C@@H]1CNc1cc2c(cc1F)CN(C1CCC(=O)NC1=O)C2=O)c1ccc(C2(C#N)CC2)cc1 (some centres unmarked) [Compound 184] | > 2 µM | – | > 2 µM | – | – |
| Cc1ccc(-c2c(C)noc2C)cc1N(CCCCNc1cc2c(cc1F)CN(C1CCC(=O)NC1=O)C2=O)c1ccc(C#N)c(Cl)c1 (centres unmarked) [Compound 166, 2-Chloro-4-((5-(3,5-dimethylisoxazol-4-yl)-2-methylphenyl)(4-((2-(2,6-dioxopiperidin-3)-6-fluoro-3-isoindolinone-5-yl)amino)butyl)amino)benzonitrile] | < 0.1 µM | 0.101 to 0.5 µM | – | – | – |
| Cc1ccc(-c2c(C)noc2C)cc1N(CCC1CN(c2cc3c(cc2F)C(=O)N(C2CCC(=O)NC2=O)C3=O)C1)c1ccc(C2(C#N)CC2)cc1 (centres unmarked) [Compound 130, 1-(4-((5-(3,5-dimethylisoxazol-4-yl)-2-methylphenyl)(2-(1-(2-(2,6-dioxopiperidin-3-yl)-6-fluoro-1,3-dioxoisoindolin-5-yl)azetidin-3-yl)ethyl)amino)phenyl)cyclopropane-1-carbonitrile] | – | – | – | < 0.1 µM | 0.101 to 0.5 µM |
| Cc1ccc(-c2c(C)noc2C)cc1N(CC1CCN(C2CN(c3cc4c(cc3F)C(=O)N(C3CCC(=O)NC3=O)C4)C2)CC1)c1ccc(C2(C#N)CC2)cc1 (centres unmarked) [Compound 160] | < 0.1 µM | – | > 2 µM | – | – |
| Cc1ccc(-c2c(C)noc2C)cc1N(C[C@H]1C[C@@H]1CNc1ccc2c(c1)C(=O)N(C1CCC(=O)NC1=O)C2)c1ccc(C2(C#N)CC2)cc1 (some centres unmarked) [Compound 186] | > 2 µM | – | > 2 µM | – | – |
| Cc1ccc(-c2c(C)noc2C)cc1N(CC1CCC(COc2ccc3c(c2)C(=O)N(C2CCC(=O)NC2=O)C3=O)CC1)c1ccc(C#N)c(Cl)c1 (centres unmarked) [Compound 104, 2-Chloro-4-((5-(3,5-dimethylisoxazol-4-yl)-2-methylphenyl)((1r,4r)-4-((2-(2,6-dioxopiperidin-3-yl)-1,3-dioxoisoindolin-5-yl)oxy)methyl)cyclohexyl)methyl)amino)benzonitrile] | – | – | – | 0.101 to 0.5 µM | 0.501 to 2 µM |
